{"source": "paper PMC11547735", "about": "“Effect of Oral Administration of Collagen Peptide OG-5 on Advanced Atherosclerosis Development in ApoE^−/− Mice” (Nutrients, 2024)", "key": {"[1]": {"assay": "Body weight and organ index of ApoE−/− mice after oral administration", "assay_type": "in vivo, mouse", "conditions": "n = 8", "experimental": "The animal study was performed in compliance with the requirements of the Guide for the Care and Use of Laboratory Animals (NIH publication No.86-23, revised 1996) and was approved by the Welfare Committee of Pony Testing International Group Co., Ltd., Beijing, China (PONY-2021-FL-12, approval date: 5 December 2021). The 7-week-old male ApoE^−/− mice and C57BL/6J mice were purchased from Beijing Vital River Laboratory Animal Technology Co., Ltd. (Beijing, China). The mice were acclimatized for a period of one week in a pathogen-free environment, maintained under a controlled 12-h light/dark cycle at a constant temperature of 21 °C. During this period, they had unrestricted access to a standard rodent chow diet and tap water. Following acclimatization, the mice were assigned to experimental groups randomly, with each group consisting of eight mice.\n(§1) The establishment of the AS model in ApoE^−/− mice was divided into two stages. At I stage, 8-week-old male ApoE^−/− mice were fed a Western-type diet (42% fat; 21% anhydrous milk fat, 0.15% cholesterol) for 16 weeks to establish an early AS model. At II stage, a high-fat and high-cholesterol diet (containing 5% cholesterol, 0.5% sodium cholate, 20% fat) was replaced at the 17th week to accelerate the progress of AS till the 24th week. The C57BL6/J mice were utilized as the normal control group and maintained on a standard maintenance diet (20% protein; 5% fat; 50% carbohydrate; 5% cellulose; 10% vitamins and minerals). The mice were subsequently randomized into 4 groups, each consisting of 8 animals: (i) M Group (0.9% saline for ApoE^−/− mice), (ii) Sustainable OG-5 intervention group (50 mg/kg bw) during two stages, (iii) OG-5 treatment group (150 mg/kg bw), and (iv) aspirin group (25 mg/kg bw) at II stage. The OG-5 and aspirin were orally administered to mice every other day. Animals that were not subjected to any treatment and maintained on a normal diet served as the control group (N group). The body weight was monitored every week.\n(§2) After 24-week treatment, the mice were fasted overnight and sacrificed. Blood was collected to stand at room temperature for 2 h, and the serum was separated by centrifugation for further analysis."}, "[2]": {"system": "ApoE^−/− mice", "assay": "Serum lipid levels in ApoE−/− mice (advanced atherosclerosis model)", "assay_type": "in vivo, mouse", "conditions": "aspirin 25 mg/kg bw oral every other day at stage II, n = 8", "excerpt": "as §1, §2"}, "[3]": {"system": "Caco-2 cell monolayers", "assay": "Transport across Caco-2 cell monolayers", "assay_type": "in vitro ADME, human", "conditions": "Caco-2 monolayers 21 days, TEER > 800 Ω·cm^2, apical to basolateral, HBSS, pre-incubation 1 h 37 °C, incubation 2 h, HPLC", "experimental": "The Caco-2 cell culture and the establishment of the transepithelial transport model were according to the previous study. The Caco-2 cells (10–20 passages) were grown in DMEM supplemented with 10% FBS and 1% penicillin streptomycin at 37 °C.\nFor the establishment of the transepithelial transport model, Caco-2 cells were seeded onto permeable polyester inserts (12 mm diameter, with a growth surface area of 1.12 cm^2 and a pore size of 0.4 μm, sourced from Costar, Corning, NY, USA) placed in 12-well transwell plates at a density of 1 × 10^5 cells per insert. Over a period of 21 days, the cell culture medium was replaced cautiously every two days to facilitate the differentiation of Caco-2 cells into fully confluent monolayers. […] The Caco-2 cell monolayers were delicately rinsed twice with HBSS and subsequently pre-incubated at 37 °C for 1 h. […]\nTransport percentage (%) is calculated by the following equation: (1) Transport percentage %=transported amount of peptide in basolateral side/intial amount of peptide in apical side×100\nThe apparent permeability coefficient (Papp, cm/s) was calculated as follows:(2) Papp=dQ/dt×1/A×1/C0 where dQ/dt is the permeability rate (mmol/s); A is the area of the membrane (cm^2); C0 is the initial peptide concentration in the donor chamber (mM)."}, "[4]": {"assay": "Peptide stability in plasma", "assay_type": "in vitro ADME", "conditions": "rat plasma (heparinized), 0.5 mM, 37 °C, 8 h incubation, 3 kDa ultrafiltration, HPLC-UV peak area", "experimental": "The assessment of peptide stability in plasma was conducted with modifications to a previously described method. Briefly, blood samples were collected in heparinized tubes and immediately centrifuged to separate the plasma supernatant. Subsequently, OG-5 was added to achieve a final concentration of 0.5 mM, and the mixture was incubated at 37 °C. At specified time points (0, 0.5, 1.0, 2.0, 4.0, and 8.0 h), the mixture was centrifuged using a 3 kDa ultrafiltration centrifugal tube to separate the filtrate. The filtrate was then analyzed using a Shimadzu LC-15 HPLC system, equipped with an SPD-15 ultraviolet detector (Kyoto, Japan). The HPLC analysis conditions included an injection volume of 10 μL, a flow rate of 1 mL/min, and a gradient elution program: 0–25 min, 0–25% acetonitrile (buffer B); 25–30 min, 25–35% buffer B; 30–35 min, 35–100% buffer B. The quantity of peptide OG-5 in the plasma was determined based on its peak area."}, "[5]": {"assay": "In vivo absorption experiment on rats", "conditions": "rat", "experimental": "The peptide absorption in vivo was conducted as previously described. The rats were orally administered with peptide OG-5 (1.0 g/kg bw). Blood samples were obtained via a minimal incision at the tail tip at 0, 0.5, 1, and 2 h after oral administration. The collected blood was transferred into 5 kDa ultrafiltration centrifugal tube, and the filtrate was collected for HPLC analysis. The elution program was conducted as follows: 0–5 min, 10–15% buffer B (acetonitrile); 5–20 min, 15–25% buffer B; 20–25 min, 25–100% buffer B."}, "[6]": {"system": "ApoE^−/− mice", "assay": "Bleeding time after long-term oral administration (Figure S1)", "assay_type": "in vivo, mouse", "conditions": "n = 8", "excerpt": "The following supporting information can be downloaded at: https://www.mdpi.com/article/10.3390/nu16213752/s1, Figure S1: Bleeding time after oral administration of peptide OG-5 in ApoE^−/− mice (n = 8)."}, "[7]": {"conditions": "cited from earlier work", "excerpt": "The application of peptides is usually limited for the short half-life and is commonly due to fast renal clearance as well as enzymatic degradation, including aminopeptidases, carboxypeptidases, dipeptidases and endopeptidases occurring during systemic circulation."}, "[8]": {"system": "Caco-2 cell monolayers", "conditions": "results reported for other peptides; cited from earlier work", "excerpt": "According to the previous study, a Papp value higher than 1.0 × 10^−5 cm ..."}, "[9]": {"conditions": "aspirin 25 mg/kg bw oral every other day at stage II"}, "[10]": {"conditions": "OG-5 50 mg/kg bw oral every other day, stages I and II"}, "[11]": {"conditions": "OG-5 150 mg/kg bw oral every other day at stage II"}, "[12]": {"conditions": "long-term oral 150 mg/kg bw, bleeding time"}}, "note": "Where two headings read alike, the source gives them in different places. Square brackets hold non-standard residues; d marks the D form. Peptide text beside a SMILES is read from it. Hyp = O=C(O)[C@@H]1C[C@@H](O)CN1", "data": [{"compound": "CC(=O)Oc1ccccc1C(=O)O", "note": "[Aspirin, reference compound]", "values": [{"measurement": "Final Body weight", "setting": "[1]; [9]", "result": "28.8 ± 1.7", "unit": "g"}, {"measurement": "Initial Body weight", "setting": "[1]; [9]", "result": "27.7 ± 2.8", "unit": "g"}, {"measurement": "Spleen index", "setting": "[1]; [9]", "result": "4.99 ± 2.64", "unit": "mg/g bw"}, {"measurement": "Thymus index", "setting": "[1]; [9]", "result": "0.83 ± 0.12", "unit": "mg/g bw"}, {"measurement": "HDL-C", "setting": "[2]", "result": "0.64 ± 0.37", "unit": "mM"}, {"measurement": "LDL-C", "setting": "[2]", "result": "9.55 ± 1.89", "unit": "mM"}, {"measurement": "TC", "setting": "[2]", "result": "41.09 ± 6.05", "unit": "mM"}, {"measurement": "TG", "setting": "[2]", "result": "3.43 ± 0.96", "unit": "mM"}]}, {"compound": "O=C(O)CC[C@H](NC(=O)CNC(=O)[C@@H]1C[C@@H](O)CN1)C(=O)N[C@@H](Cc1ccccc1)C(=O)NCC(=O)O", "note": "[OG-5, OGEFG] (H-[Hyp]GEFG-OH)", "values": [{"measurement": "Initial Body weight", "setting": "[1]; OG-5 50 mg/kg bw oral every other day, stages I and II (24 weeks), mean ± standard", "result": "24.5 ± 1.0", "unit": "g"}, {"measurement": "Final Body weight", "setting": "[1]; OG-5 50 mg/kg bw oral every other day, stages I and II (24 weeks)", "result": "27.7 ± 2.2", "unit": "g"}, {"measurement": "Spleen index", "setting": "[1]; [10]", "result": "4.16 ± 0.99", "unit": "mg/g bw"}, {"measurement": "Thymus index", "setting": "[1]; [10]", "result": "0.69 ± 0.15", "unit": "mg/g bw"}, {"measurement": "Initial Body weight", "setting": "[1]; OG-5 150 mg/kg bw oral every other day at stage II (weeks 17-24)", "result": "27.8 ± 2.5", "unit": "g"}, {"measurement": "Final Body weight", "setting": "[1]; [11]", "result": "28.9 ± 2.0", "unit": "g"}, {"measurement": "Spleen index", "setting": "[1]; [11]", "result": "4.80 ± 2.13", "unit": "mg/g bw"}, {"measurement": "Thymus index", "setting": "[1]; [11]", "result": "0.79 ± 0.13", "unit": "mg/g bw"}, {"measurement": "Papp", "setting": "[3]", "result": 18, "unit": "×10⁻⁶ cm/s"}, {"measurement": "Transport percentage", "setting": "[3]; spread printed ± 0.57", "result": 14.40, "unit": "%"}, {"measurement": "peptide remaining intact in plasma", "setting": "[4]", "result": "> 70", "unit": "%"}, {"measurement": "remaining at 8 h", "setting": "[4]; read-out: peptide remaining intact in plasma", "result": 78.2, "unit": "%"}, {"measurement": "Tmax", "setting": "[5]; po, 1 g/kg", "result": 2, "unit": "h"}, {"measurement": "Cmax", "setting": "[5]; rats, oral 1.0 g/kg bw, tail blood at 0, 0.5, 1, 2 h, 5 kDa ultrafiltration, HPLC, read-out: peak plasma concentration", "result": 77.8, "unit": "µM"}, {"measurement": "bleeding risk compared to aspirin", "setting": "[6]; [12]", "result": "lower bleeding risk"}, {"measurement": "bleeding risk compared with M model", "setting": "[6]; [12]", "result": "a little bleeding risk"}, {"measurement": "bleeding risk", "setting": "[6]; low-dose sustainable intervention 50 mg/kg bw from stage I", "result": "without bleeding risks"}]}, {"compound": "PGEOG", "values": [{"measurement": "half-life in plasma", "setting": "[7]", "result": 4.3, "unit": "h"}]}, {"compound": "RVPSL [literature antihypertensive peptide, ovotransferrin 328–332, compared for Caco-2 Papp]", "values": [{"measurement": "Papp", "setting": "[8]", "result": 7, "unit": "×10⁻⁶ cm/s"}]}, {"compound": "TNGIIR", "values": [{"measurement": "Papp", "setting": "[8]", "result": 4.9, "unit": "×10⁻⁶ cm/s"}]}]}
